Drawing on patent publication US12351564B2, “NLRP3 modulators” (Zomagen Biosciences Ltd, priority 2019, dated 2025), this text covers IC50 for 27 molecules.

Bounds are passed on as bounds.

For orientation: IC50 means the concentration at which inhibition is half-maximal. Read a low IC50 as higher potency.

The test system of the experiment is IL-1b. The experiment in a line: Mouse BMDM IL-1b Assay. The format is cell-based. To be noted: Macrophage; C57BL6 bone marrow derived macrophages; 200 ng/mL Ultrapure LPS-B5 3 hours, compound 30 minutes, 5 mM ATP 45 minutes; mouse IL-1b ELISA of supernatant. On the procedure: Example 8: Mouse BMDM IL-1b Assay
Mouse bone marrow cells from C57BL6 tibia and femur were culture in complete Isocov's Media supplemented with 20 ng/mL MCSF (BMDM media) at a density of 50 million cells/15 cm Petri dish. Fresh media was changed every 3 days, and bone marrow derived macrophages were collected, washed, and counted on day 7. Cells were seeded into 96 well plates at a density of 5×10^4 cells per well in 100 uL of BMDM media and cultured overnight. The cells were stimulated at 37° C. with 200 ng/mL Ultrapure LPS-B5 for 3 hours before pre-diluted compounds were added. 30 minutes after compound addition, 5 mM ATP was added for the secondary stimulation for 45 minutes. After stimulation, the plates were briefly spun down, and 50 uL of supernatant was harvested from each well. ELISA for mouse IL-1b was performed with 1:10 and 1:100 diluted supernatant using pre-coated kits. IL-1b concentrations were calculated based on pre-titrated standards, and compound inhibition IC50 is generated using the Levenberg Marquardt damped lease-square method.
In general terms: An ELISA detects its analyte on a solid surface through an enzyme-linked reagent.
For `CC1(O)c2cc(S(=O)(=O)NC(=O)Nc3c4c(cc5c3CCC5)CCC4)oc2C2CCC1C2` (stereo not drawn) [Compound 6, N-((1,2,3,5,6,7-hexahydro-s-indacen-4-yl)carbamoyl)-4-hydroxy-4-methyl-5,6,7,8-tetrahydro-4H-5,8-methanocyclohepta[b]furan-2-sulfonamide], the IC50 is below 100 nM.

`O=C(Nc1c2c(cc3c1CCC3)CCC2)NS(=O)(=O)c1cc2c(o1)C1CCC(C1)C2=O` (stereo not drawn) [Compound 7, N-((1,2,3,5,6,7-hexahydro-s-indacen-4-yl)carbamoyl)-4-oxo-5,6,7,8-tetrahydro-4H-5,8-methanocyclohepta[b]furan-2-sulfonamide] returned an IC50 below 100 nM.

`O=C(Nc1c2c(cc3c1CCC3)CCC2)NS(=O)(=O)c1cc2c(o1)C1CCC(C1)C2O` (stereo not drawn) [Compound 9, N-((1,2,3,5,6,7-hexahydro-s-indacen-4-yl)carbamoyl)-4-hydroxy-5,6,7,8-tetrahydro-4H-5,8-methanocyclohepta[b]furan-2-sulfonamide] displayed an IC50 below 100 nM.

In the case of `O=C(Nc1c2c(cc3c1CCC3)CCC2)NS(=O)(=O)c1cc2c(o1)C1CCC(C1)C2=NO` (stereo not drawn) [Compound 11, N-((1,2,3,5,6,7-hexahydro-s-indacen-4-yl)carbamoyl)-4-(hydroxyimino)-5,6,7,8-tetrahydro-4H-5,8-methanocyclohepta[b]furan-2-sulfonamide], the IC50 was below 100 nM.

For the molecule `CC(C)c1cccc(C(C)C)c1CC(=O)NS(=O)(=O)c1cc2c(o1)C1CCC(C1)C2=O` (stereo not drawn) [Compound 14, 2-(2,6-diisopropylphenyl)-N-((4-oxo-5,6,7,8-tetrahydro-4H-5,8-methanocyclohepta[b]furan-2-yl)sulfonyl)acetamide], the IC50 lay within 1000 to 10000 nM.

Turning to `CC(C)c1cccc(C(C)C)c1CC(=O)NS(=O)(=O)c1cc2c(o1)C1CCC(C1)C2O` (stereo not drawn) [Compound 15, 2-(2,6-diisopropylphenyl)-N-((4-hydroxy-5,6,7,8-tetrahydro-4H-5,8-methanocyclohepta[b]furan-2-yl)sulfonyl)acetamide], the 50% inhibitory concentration (IC50) is 1000 to 10000 nM.

With `CC(C)c1cccc(C(C)C)c1CC(=O)NS(=O)(=O)c1cc2c(o1)C1CCC(C1)C2(C)O` (stereo not drawn) [Compound 16, 2-(2,6-diisopropylphenyl)-N-((4-hydroxy-4-methyl-5,6,7,8-tetrahydro-4H-5,8-methanocyclohepta[b]furan-2-yl)sulfonyl)acetamide], the IC50 was 100 to 1000 nM.

In turn, `O=C(Nc1c2c(c(Br)c3c1CCC3)CCC2)NS(=O)(=O)c1cc2c(o1)C1CCC(C1)C2O` (stereo not drawn) [Compound 17, N-((8-bromo-1,2,3,5,6,7-hexahydro-s-indacen-4-yl)carbamoyl)-4-hydroxy-5,6,7,8-tetrahydro-4H-5,8-methanocyclohepta[b]furan-2-sulfonamide] showed a half-inhibitory concentration (IC50) of 100 to 1000 nM.

The molecule `CC1(O)c2cc(S(=O)(=O)NC(=O)Nc3c4c(c(Br)c5c3CCC5)CCC4)oc2C2CCC1C2` (stereo not drawn) [Compound 18, N-((8-bromo-1,2,3,5,6,7-hexahydro-s-indacen-4-yl)carbamoyl)-4-hydroxy-4-methyl-5,6,7,8-tetrahydro-4H-5,8-methanocyclohepta[b]furan-2-sulfonamide] registered an IC50 below 100 nM.

Turning to `O=C(Nc1c2c(c(Cl)c3c1CCC3)CCC2)NS(=O)(=O)c1cc2c(o1)C1CCC(C1)C2O` (stereo not drawn) [Compound 19, N-((8-chloro-1,2,3,5,6,7-hexahydro-s-indacen-4-yl)carbamoyl)-4-hydroxy-5,6,7,8-tetrahydro-4H-5,8-methanocyclohepta[b]furan-2-sulfonamide], the IC50 was below 100 nM.

On to `CC1(O)c2cc(S(=O)(=O)NC(=O)Nc3c4c(c(Cl)c5c3CCC5)CCC4)oc2C2CCC1C2` (stereo not drawn) [Compound 20, N-((8-chloro-1,2,3,5,6,7-hexahydro-s-indacen-4-yl)carbamoyl)-4-hydroxy-4-methyl-5,6,7,8-tetrahydro-4H-5,8-methanocyclohepta[b]furan-2-sulfonamide], for which the IC50 is below 100 nM.

`CC1(O)c2cc(S(=O)(=O)NC(=O)Nc3c4c(cc5c3CCC5)CCC4)oc2C2CCC1CC2` (stereo not drawn) [Compound 21, N-((1,2,3,5,6,7-hexahydro-s-indacen-4-yl)carbamoyl)-4-hydroxy-4-methyl-5,6,7,8-tetrahydro-4H-5,8-ethanocyclohepta[b]furan-2-sulfonamide] yielded a half-maximal inhibitory concentration (IC50) below 100 nM.

Take `O=C(Nc1c2c(cc3c1CCC3)CCC2)NS(=O)(=O)c1cc2c(o1)C1CCC(CC1)C2O` (stereo not drawn) [Compound 22, N-((1,2,3,5,6,7-hexahydro-s-indacen-4-yl)carbamoyl)-4-hydroxy-5,6,7,8-tetrahydro-4H-5,8-ethanocyclohepta[b]furan-2-sulfonamide]: the IC50 is below 100 nM.

`O=C(Nc1c2c(cc3c1CCC3)CCC2)NS(=O)(=O)c1cc2c(o1)C1CCC(CC1)C2=O` [Compound 23, N-((1,2,3,5,6,7-hexahydro-s-indacen-4-yl)carbamoyl)-4-oxo-5,6,7,8-tetrahydro-4H-5,8-ethanocyclohepta[b]furan-2-sulfonamide] displayed an IC50 below 100 nM.

As to `O=C(Nc1c2c(cc3c1CCC3)CCC2)NS(=O)(=O)c1cc2c(o1)C1CCC(CC1)C2=NO` [Compound 24, N-((1,2,3,5,6,7-hexahydro-s-indacen-4-yl)carbamoyl)-4-(hydroxyimino)-5,6,7,8-tetrahydro-4H-5,8-ethanocyclohepta[b]furan-2-sulfonamide], the 50% inhibitory concentration (IC50) is below 100 nM.

Take `CC(C)c1ccc(Cl)c(C(C)C)c1NC(=O)NS(=O)(=O)c1cc2c(o1)C1CCC(C1)C2O` (stereo not drawn) [Compound 25, N-((3-chloro-2,6-diisopropylphenyl)carbamoyl)-4-hydroxy-5,6,7,8-tetrahydro-4H-5,8-methanocyclohepta[b]furan-2-sulfonamide]: the IC50 was 100 to 1000 nM.

`CC(C)c1ccc(Cl)c(C(C)C)c1NC(=O)NS(=O)(=O)c1cc2c(o1)C1CCC(C1)C2(C)O` (stereo not drawn) [Compound 26, N-((3-chloro-2,6-diisopropylphenyl)carbamoyl)-4-hydroxy-4-methyl-5,6,7,8-tetrahydro-4H-5,8-methanocyclohepta[b]furan-2-sulfonamide] yielded an IC50 of 100 to 1000 nM.

As for `CC(C)c1cccc(C(C)C)c1NC(=O)NS(=O)(=O)c1cc2c(o1)C1CCC(C1)C2(C)O` (stereo not drawn) [Compound 27, N((2,6-diisopropylphenyl)carbamoyl)-4-hydroxy-4-methyl-5,6,7,8-tetrahydro-4H-5,8-methanocyclohepta[b]furan-2-sulfonamide], the IC50 is below 100 nM.

In turn, `CC(C)c1cc(F)cc(C(C)C)c1NC(=O)NS(=O)(=O)c1cc2c(o1)C1CCC(C1)C2(C)O` (stereo not drawn) [Compound 28, N-((4-fluoro-2,6-diisopropylphenyl)carbamoyl)-4-hydroxy-4-methyl-5,6,7,8-tetrahydro-4H-5,8-methanocyclohepta[b]furan-2-sulfonamide] showed an IC50 of 100 to 1000 nM.

In the case of `CC(C)c1cc(Cl)cc(C(C)C)c1NC(=O)NS(=O)(=O)c1cc2c(o1)C1CCC(C1)C2(C)O` (stereo not drawn) [Compound 29, N-((4-chloro-2,6-diisopropylphenyl)carbamoyl)-4-hydroxy-4-methyl-5,6,7,8-tetrahydro-4H-5,8-methanocyclohepta[b]furan-2-sulfonamide], the IC50 was in the range of 100 to 1000 nM.

Regarding `CC1(O)c2cc(S(=O)(=O)NC(=O)Nc3c4c(c(F)c5c3CCC5)CCC4)oc2C2CCC1C2` (stereo not drawn) [Compound 30, N-((8-fluoro-1,2,3,5,6,7-hexahydro-s-indacen-4-yl)carbamoyl)-4-hydroxy-4-methyl-5,6,7,8-tetrahydro-4H-5,8-methanocyclohepta[b]furan-2-sulfonamide], the IC50 is below 100 nM.

Regarding `O=C(Nc1c2c(c(F)c3c1CCC3)CCC2)NS(=O)(=O)c1cc2c(o1)C1CCC(C1)C2O` (stereo not drawn) [Compound 31, N-((8-fluoro-1,2,3,5,6,7-hexahydro-s-indacen-4-yl)carbamoyl)-4-hydroxy-5,6,7,8-tetrahydro-4H-5,8-methanocyclohepta[b]furan-2-sulfonamide], the IC50 was below 100 nM.

For the molecule `O=C(Nc1c2c(cc3c1CCC3)CCC2)NS(=O)(=O)c1ccc2c(c1)C(=O)C1CCC2CC1` [Compound 32, N-((1,2,3,5,6,7-hexahydro-s-indacen-4-yl)carbamoyl)-9-oxo-6,7,8,9-tetrahydro-5H-5,8-ethanobenzo[7]annulene-2-sulfonamide], the IC50 was below 100 nM.

As for `O=C(Nc1c2c(cc3c1CCC3)CCC2)NS(=O)(=O)c1ccc2c(c1)C(O)C1CCC2CC1` (stereo not drawn) [Compound 33, N-((1,2,3,5,6,7-hexahydro-s-indacen-4-yl)carbamoyl)-9-hydroxy-6,7,8,9-tetrahydro-5H-5,8-ethanobenzo[7]annulene-2-sulfonamide], the IC50 fell in the range of 100 to 1000 nM.

Molecule `CC1(O)c2cc(S(=O)(=O)NC(=O)Nc3c4c(cc5c3CCC5)CCC4)ccc2C2CCC1CC2` (stereo not drawn) [Compound 34, N-((1,2,3,5,6,7-hexahydro-s-indacen-4-yl)carbamoyl)-9-hydroxy-9-methyl-6,7,8,9-tetrahydro-5H-5,8-ethanobenzo[7]annulene-2-sulfonamide] registered an IC50 of 100 to 1000 nM.

The molecule `O=C(Nc1c2c(cc3c1CCC3)CCC2)NS(=O)(=O)c1ccc2c(c1)/C(=N\O)C1CCC2CC1` [Compound 35, (Z)-N-((1,2,3,5,6,7-hexahydro-s-indacen-4-yl)carbamoyl)-9-(hydroxyimino)-6,7,8,9-tetrahydro-5H-5,8-ethanobenzo[7]annulene-2-sulfonamide] yielded a concentration for half-maximal inhibition (IC50) of 100 to 1000 nM.

The molecule `CC(C)c1ccc(F)c(C(C)C)c1NC(=O)NS(=O)(=O)c1cc2c(o1)C1CCC(C1)C2(C)O` (stereo not drawn) [Compound 36, N-((3-fluoro-2,6-diisopropylphenyl)carbamoyl)-4-hydroxy-4-methyl-5,6,7,8-tetrahydro-4H-5,8-methanocyclohepta[b]furan-2-sulfonamide] gave an IC50 below 100 nM.
